Holding throughout (experiment): MIC, agar dilution test/Isosensitest agar
What all share (settings): unit assumed
(In agar dilution, organisms are placed on agar that contains the substance at set levels.)

One assay deals with E. coli Neumann. The class given is cell-based, Escherichia coli. From the text: (§1) |(agar dilution test/Isosensitest agar)
In another assay the test system is Klebsiella 8085. It counts as cell-based.
From the text: as §1

The next assay concerns Serratia 16040. It counts as cell-based.
From the text: as §1

For another assay, the system named is Pseudomonas Ellsworth. The class given is cell-based.
From the text: as §1

The test system of the next assay is Staphylococcus FK 422. It counts as cell-based.
From the text: as §1

The next assay has as its system Streptococcus 27101. It counts as cell-based.
From the text: as §1

The test system of another assay is Providencia 12012. The class given is cell-based.
From the text: as §1

Another assay has as its system Proteus vulgaris 1017. It counts as cell-based.
From the text: as §1

≈ marks a conversion by molar mass, not a printed value.

One may read the MIC as the lowest concentration found to suppress growth. Read a high MIC as a need for much substance. Take `Cc1oc(=O)oc1CN1CCN(c2cc3c(cc2F)c(=O)c(C(=O)O)cn3C2CC2)CC1` [Example 1, 1-Cyclopropyl-6-fluoro-1,4-dihydro-7-[4-(5-methyl-2-oxo-1,3-dioxol-4-yl-methyl)-1-piperazinyl]-4-oxo-3-quinolinecarboxylic acid]: the MIC with E. coli Neumann is no more than 0.015 µg/mL; against Klebsiella 8085, no more than 0.015 µg/mL; with Serratia 16040, 8 µg/mL (≈ 18 µM); in the assay with Pseudomonas Ellsworth it was 0.06 µg/mL (≈ 0.135 µM); against Staphylococcus FK 422 it was 0.25 µg/mL (≈ 0.564 µM); against Streptococcus 27101, 0.5 µg/mL (≈ 1.13 µM). The MIC against Providencia 12012 is 0.03 µg/mL (≈ 0.0677 µM); against Proteus vulgaris 1017 it was no more than 0.015 µg/mL.

Source of the values: patent US4703047A, “1-Cyclopropyl-1,4-dihydro-4-oxo-7-(4-(2-oxo-1,3-dioxol-4-yl- methyl)-1-piperazinyl)-3-quinolinecarboxylic acid antibacterial agents” (Bayer Aktiengesellschaft, priority 1985, dated 1987).
